Reference: US20250011351A1, “[…] O-ACETYLPSILOCIN, SALTS AND SOLID STATE FORMS THEREOF” (Terran Biosciences Inc., priority 2021, published 2025)

Test: Humidity exposure (RH jars, hygroscopicity test; handling at ambient humidity)
Assay type: physicochemical
Procedure: Solids deliquesced within approx. 1 hour of exposure to elevated relative humidity. The sample was capped and placed in a freezer for storage.

## CC(=O)Oc1cccc2[nH]cc(CCN(C)C)c12.Cl [O-acetyl psilocin hydrochloride]
Open vial inside a 75% RH jar (hygroscopicity test)
  time to deliquescence: ≤ 1 h

## CC(=O)Oc1cccc2[nH]cc(CCN(C)C)c12.O=C(O)/C=C\C(=O)O [non-crystalline maleate salt, O-acetyl psilocin maleate]
Ambient relative humidity (50% RH in summertime)
  physical stability of the non-crystalline material: unstable

## CC(=O)Oc1cccc2[nH]cc(CCN(C)C)c12.O=P(O)(O)O [phosphate salt (Forms A+B), O-acetyl psilocin phosphate]
65% RH
  deliquescence: deliquesce
Evaluation using RH jars
  hygroscopicity: low

## Psilocybin Mesylate
Ambient humidity (~50-60%)
  behaviour when handled at ambient humidity: became tacky and deliquesced
